Reference: ChEMBL document CHEMBL4680110 (2018)
The source made the active and inactive calls. Peptide text beside a SMILES is read from it. * marks the point of attachment. Bz = O=C(c1ccccc1)*

How the values were obtained:
[1] = Selectivity index, ratio of IC50 for inhibition of human alpha9alpha10 nAChR expressed in Xenopus laevis oocytes to IC50 for activation of human GABAB1/GABAB2 expressed in HEK293 cells co-transfected with rat CaV2.2 channel assessed as reduction in CaV2.2-mediated peak-current amplitude; type: cell-based
Rattus norvegicus [2] = test: Analgesic activity in Sprague-Dawley rat model of PNL injury-induced neuropathic pain assessed as pain threshold elevation percentage at 15 nmol/kg, IM administered as single dose measured after 2 to 2.5 hrs post dose; type: functional; conditions: time 2-2.5 hrs
[3] = molecular target: Nicotinic acetylcholine receptor alpha9/alpha10 (Rattus norvegicus, UniProt P43144+Q9JLB5); test: Inhibition of rat alpha9alpha10 nAChR expressed in Xenopus laevis oocytes assessed as inhibition of Ach-induced response at -80 mV holding potential preincubated for 5 mins followed by Ach stimulation by two electrode voltage-clamp assay; type: cell-based, Oocyte
Chain of Nicotinic acetylcholine receptor alpha9/alpha10 (P43144 whole entry): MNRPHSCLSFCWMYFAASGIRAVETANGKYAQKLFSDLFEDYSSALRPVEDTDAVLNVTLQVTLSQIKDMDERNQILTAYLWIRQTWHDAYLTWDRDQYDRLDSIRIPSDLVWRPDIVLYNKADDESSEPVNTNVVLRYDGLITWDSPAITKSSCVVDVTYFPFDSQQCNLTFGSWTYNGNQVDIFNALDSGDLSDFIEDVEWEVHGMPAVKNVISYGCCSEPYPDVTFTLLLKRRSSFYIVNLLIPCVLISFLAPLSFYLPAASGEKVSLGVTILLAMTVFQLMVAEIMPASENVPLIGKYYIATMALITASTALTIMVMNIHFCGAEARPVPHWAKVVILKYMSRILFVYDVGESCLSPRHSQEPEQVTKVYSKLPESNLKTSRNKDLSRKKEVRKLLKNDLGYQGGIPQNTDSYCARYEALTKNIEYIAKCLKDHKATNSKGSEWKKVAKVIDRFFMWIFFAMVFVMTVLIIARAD
Chain of Nicotinic acetylcholine receptor alpha9/alpha10 (Q9JLB5 whole entry): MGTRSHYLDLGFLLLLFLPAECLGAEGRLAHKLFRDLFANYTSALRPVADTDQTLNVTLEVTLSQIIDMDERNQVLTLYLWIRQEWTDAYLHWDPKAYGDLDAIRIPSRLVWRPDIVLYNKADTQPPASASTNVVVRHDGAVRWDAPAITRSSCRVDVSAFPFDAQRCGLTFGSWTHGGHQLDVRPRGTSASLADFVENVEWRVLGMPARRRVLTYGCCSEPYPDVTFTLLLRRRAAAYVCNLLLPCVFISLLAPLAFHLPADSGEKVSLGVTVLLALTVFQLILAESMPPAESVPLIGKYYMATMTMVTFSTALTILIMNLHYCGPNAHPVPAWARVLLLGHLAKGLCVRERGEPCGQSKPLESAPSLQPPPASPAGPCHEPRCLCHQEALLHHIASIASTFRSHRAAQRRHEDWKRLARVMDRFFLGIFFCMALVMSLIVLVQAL

Rattus norvegicus [4] = test: Analgesic activity in Sprague-Dawley rat model of PNL injury-induced neuropathic pain assessed as pain threshold elevation percentage at 0.3 nmol/kg, IM administered as single dose measured after 2 to 2.5 hrs post dose; type: functional; conditions: time 2-2.5 hrs
GABA-B receptor = GABA-B receptor (Homo sapiens, UniProt O75899+Q9UBS5); test: Activation of human GABAB1/GABAB2 expressed in HEK293 cells co-transfected with rat CaV2.2 channel assessed as reduction in CaV2.2-mediated peak-current amplitude in response to the depolarizing pulse by whole cell patch clamp assay; type: cell-based, HEK293T
Chain of GABA-B receptor (Q9UBS5 whole entry): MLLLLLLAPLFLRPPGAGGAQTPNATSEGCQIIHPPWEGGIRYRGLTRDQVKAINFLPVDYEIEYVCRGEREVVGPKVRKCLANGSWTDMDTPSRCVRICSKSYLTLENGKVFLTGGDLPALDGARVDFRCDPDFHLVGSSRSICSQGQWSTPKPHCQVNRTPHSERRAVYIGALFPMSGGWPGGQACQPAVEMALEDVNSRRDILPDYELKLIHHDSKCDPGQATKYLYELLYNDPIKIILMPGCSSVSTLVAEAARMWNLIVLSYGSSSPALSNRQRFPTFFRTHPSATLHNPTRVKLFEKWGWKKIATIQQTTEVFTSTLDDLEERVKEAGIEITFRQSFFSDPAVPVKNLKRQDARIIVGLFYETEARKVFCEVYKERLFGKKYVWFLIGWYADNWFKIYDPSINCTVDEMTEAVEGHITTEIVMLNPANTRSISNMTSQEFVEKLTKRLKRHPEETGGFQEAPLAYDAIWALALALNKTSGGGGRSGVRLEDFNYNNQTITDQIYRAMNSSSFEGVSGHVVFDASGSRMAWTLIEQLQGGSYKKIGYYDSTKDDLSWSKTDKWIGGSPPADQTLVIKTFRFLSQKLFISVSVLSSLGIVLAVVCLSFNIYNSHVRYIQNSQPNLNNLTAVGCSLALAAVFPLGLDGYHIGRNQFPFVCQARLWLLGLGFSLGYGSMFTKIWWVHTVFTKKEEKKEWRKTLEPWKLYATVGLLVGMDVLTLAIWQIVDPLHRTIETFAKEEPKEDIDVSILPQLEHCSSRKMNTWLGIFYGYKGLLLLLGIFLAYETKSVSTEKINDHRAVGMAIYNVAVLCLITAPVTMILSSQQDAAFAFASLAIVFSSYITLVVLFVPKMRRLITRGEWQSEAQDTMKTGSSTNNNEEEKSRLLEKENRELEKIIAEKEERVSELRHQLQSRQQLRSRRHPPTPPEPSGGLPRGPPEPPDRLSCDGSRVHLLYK
Chain of GABA-B receptor (O75899 whole entry): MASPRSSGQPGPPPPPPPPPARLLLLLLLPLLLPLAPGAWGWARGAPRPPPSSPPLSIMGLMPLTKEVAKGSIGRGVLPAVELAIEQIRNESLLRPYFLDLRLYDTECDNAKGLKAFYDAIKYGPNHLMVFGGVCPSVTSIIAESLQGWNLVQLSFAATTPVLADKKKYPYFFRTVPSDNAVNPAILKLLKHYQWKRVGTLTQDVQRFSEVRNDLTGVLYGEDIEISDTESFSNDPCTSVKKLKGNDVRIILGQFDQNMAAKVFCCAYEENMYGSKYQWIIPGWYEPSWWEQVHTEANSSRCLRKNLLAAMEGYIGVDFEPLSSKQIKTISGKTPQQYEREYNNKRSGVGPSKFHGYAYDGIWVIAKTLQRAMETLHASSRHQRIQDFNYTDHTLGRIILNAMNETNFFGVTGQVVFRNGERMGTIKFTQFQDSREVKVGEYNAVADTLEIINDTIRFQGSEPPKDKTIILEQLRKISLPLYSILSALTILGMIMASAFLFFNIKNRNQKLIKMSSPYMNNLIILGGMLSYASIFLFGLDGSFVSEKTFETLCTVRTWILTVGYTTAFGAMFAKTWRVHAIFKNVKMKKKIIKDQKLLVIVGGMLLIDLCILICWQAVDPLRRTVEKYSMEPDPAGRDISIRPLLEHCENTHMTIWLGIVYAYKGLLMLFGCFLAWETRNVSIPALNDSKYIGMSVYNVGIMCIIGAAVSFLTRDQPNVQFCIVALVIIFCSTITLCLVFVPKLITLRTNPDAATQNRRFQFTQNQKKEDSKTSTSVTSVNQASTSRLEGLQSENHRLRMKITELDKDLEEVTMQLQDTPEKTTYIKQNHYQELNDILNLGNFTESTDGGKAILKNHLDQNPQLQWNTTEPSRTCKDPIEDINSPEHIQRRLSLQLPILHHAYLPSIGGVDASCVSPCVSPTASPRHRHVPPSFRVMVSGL

[5] = Selectivity index, ratio of IC50 for inhibition of rat alpha9alpha10 nAChR expressed in Xenopus laevis oocytes to IC50 for activation of human GABAB1/GABAB2 expressed in HEK293 cells co-transfected with rat CaV2.2 channel assessed as reduction in CaV2.2-mediated peak Ba2+ current amplitude; type: cell-based
[6] = molecular target: Neuronal acetylcholine receptor; alpha9/alpha10 (Homo sapiens, UniProt Q9GZZ6+Q9UGM1); test: Inhibition of human alpha9alpha10 nAChR expressed in Xenopus laevis oocytes assessed as inhibition of Ach-induced response at -80 mV holding potential preincubated for 5 mins followed by Ach stimulation by two electrode voltage-clamp assay; type: cell-based, Oocyte
Chain of Neuronal acetylcholine receptor; alpha9/alpha10 (Q9UGM1 whole entry): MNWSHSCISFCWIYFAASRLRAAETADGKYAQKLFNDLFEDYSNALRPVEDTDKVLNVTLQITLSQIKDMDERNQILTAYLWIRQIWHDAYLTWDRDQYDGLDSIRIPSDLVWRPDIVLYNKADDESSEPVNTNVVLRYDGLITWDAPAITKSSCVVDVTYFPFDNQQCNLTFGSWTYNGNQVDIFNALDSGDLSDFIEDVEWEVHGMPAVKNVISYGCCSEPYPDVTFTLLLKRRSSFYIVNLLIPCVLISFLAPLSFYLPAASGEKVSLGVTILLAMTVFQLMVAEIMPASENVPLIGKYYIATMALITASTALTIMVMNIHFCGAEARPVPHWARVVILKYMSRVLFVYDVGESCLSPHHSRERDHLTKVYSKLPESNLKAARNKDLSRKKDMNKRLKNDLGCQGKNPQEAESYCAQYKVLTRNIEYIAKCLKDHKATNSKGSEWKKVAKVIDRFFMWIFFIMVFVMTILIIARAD
Chain of Neuronal acetylcholine receptor; alpha9/alpha10 (Q9GZZ6 whole entry): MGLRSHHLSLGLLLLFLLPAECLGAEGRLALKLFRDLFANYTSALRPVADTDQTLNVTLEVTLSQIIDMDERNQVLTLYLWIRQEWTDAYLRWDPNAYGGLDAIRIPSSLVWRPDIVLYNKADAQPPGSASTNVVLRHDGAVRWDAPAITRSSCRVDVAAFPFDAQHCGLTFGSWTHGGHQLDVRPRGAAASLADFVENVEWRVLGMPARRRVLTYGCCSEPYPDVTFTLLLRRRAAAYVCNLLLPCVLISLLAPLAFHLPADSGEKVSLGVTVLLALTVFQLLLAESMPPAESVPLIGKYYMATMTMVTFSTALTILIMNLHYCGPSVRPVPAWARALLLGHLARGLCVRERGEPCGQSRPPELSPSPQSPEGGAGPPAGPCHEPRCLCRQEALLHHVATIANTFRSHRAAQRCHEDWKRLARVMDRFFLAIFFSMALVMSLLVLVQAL

Neuron = test: Inhibition of TTX-sensitive sodium channel in Sprague-Dawley rat DRG neuron at 10 uM at -10 mV holding potential by whole cell patch clamp technique; type: tissue-based
[7] = molecular target: T1, GABA-B receptor (Homo sapiens) (UniProt Q9UBS5+O75899); test: Activation of human GABAB1/GABAB2 expressed in HEK293 cells co-transfected with rat CaV2.2 channel assessed as reduction in CaV2.2-mediated Ba2+ peak-current amplitude in response to depolarizing pulse in presence of 1 uM GABAB receptor antagonist CGP55845 by whole cell patch clamp assay; type: cell-based; conditions: HEK293T, time 6.0 hrs
Rattus norvegicus [8] = organism: Rattus norvegicus; test: Inhibition of TTX-resistant sodium channel in Sprague-Dawley rat DRG neuron at 10 uM at 10 mV holding potential by whole cell patch clamp technique
Rattus norvegicus [9] = test: Analgesic activity in Sprague-Dawley rat model of PNL injury-induced neuropathic pain assessed as pain threshold elevation percentage at 1.5 nmol/kg, IM administered as single dose measured after 2 to 2.5 hrs post dose; type: functional; conditions: time 2-2.5 hrs
[10] = molecular target: T1, GABA-B receptor (Homo sapiens); test: Activation of human GABAB1/GABAB2 expressed in HEK293 cells co-transfected with rat CaV2.2 channel assessed as reduction in CaV2.2-mediated peak-current amplitude in response to depolarizing pulse at 1 nM by whole cell patch clamp assay relative to control; type: cell-based; conditions: HEK293T
Rattus norvegicus [11] = test: Analgesic activity in Sprague-Dawley rat model of chronic constriction injury-induced neuropathic pain assessed as increase in pain threshold elevation percentage at 0.3 to 15 nmol/kg, IM administered as single dose measured after 2 to 2.5 hrs post dose; type: functional, organism-based; conditions: dose 0.3-15 nmol/kg, time 2-2.5 hrs
[12] = molecular target: Voltage-dependent N-type calcium channel subunit alpha-1B (Rattus norvegicus) (UniProt Q02294); test: Inhibition of rat CaV2.2 channel expressed in HEK293T cells assessed as reduction in CaV2.2-mediated peak-current amplitude in response to depolarizing pulse at 10 uM by whole cell patch clamp assay relative to control; type: cell-based
[13] = molecular target: Neuronal acetylcholine receptor; alpha2/beta4 (Rattus norvegicus) (UniProt P12389+P12392); test: Inhibition of rat alpha2beta4 nAChR expressed in Xenopus laevis oocytes assessed as inhibition of Ach-induced response at 10 uM at -80 mV holding potential preincubated for 5 mins followed by Ach stimulation by two electrode voltage-clamp assay relative to control; type: cell-based; conditions: Oocyte
[14] = molecular target: Neuronal acetylcholine receptor subunit alpha-7 (Rattus norvegicus) (UniProt Q05941); test: Inhibition of rat alpha7 nAChR expressed in Xenopus laevis oocytes assessed as inhibition of Ach-induced response at 10 uM at -80 mV holding potential preincubated for 5 mins followed by Ach stimulation by two electrode voltage-clamp assay relative to control; type: cell-based; conditions: Oocyte
Chain of Neuronal acetylcholine receptor subunit alpha-7 (Rattus norvegicus) (Q05941 whole entry): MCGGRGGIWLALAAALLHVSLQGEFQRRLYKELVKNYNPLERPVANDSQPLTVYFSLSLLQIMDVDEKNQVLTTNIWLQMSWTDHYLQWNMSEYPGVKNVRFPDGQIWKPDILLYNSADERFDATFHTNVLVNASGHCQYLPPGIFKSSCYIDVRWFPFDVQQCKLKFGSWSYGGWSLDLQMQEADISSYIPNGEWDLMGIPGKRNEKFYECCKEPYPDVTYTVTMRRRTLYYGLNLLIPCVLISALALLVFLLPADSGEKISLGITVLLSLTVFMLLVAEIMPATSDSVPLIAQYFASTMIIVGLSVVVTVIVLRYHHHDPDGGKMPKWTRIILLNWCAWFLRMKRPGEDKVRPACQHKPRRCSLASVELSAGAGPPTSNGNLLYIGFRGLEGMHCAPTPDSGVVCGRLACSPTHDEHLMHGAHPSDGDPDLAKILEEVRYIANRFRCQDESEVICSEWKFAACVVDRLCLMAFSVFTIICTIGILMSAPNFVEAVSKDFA

[15] = molecular target: T1, GABA-B receptor (Homo sapiens); test: Activation of human GABAB1/GABAB2 expressed in HEK293 cells co-transfected with rat CaV2.2 channel assessed as reduction in CaV2.2-mediated peak-current amplitude in response to depolarizing pulse at 1 nM in presence of with 10 uM baclofen by whole cell patch clamp assay relative to control; type: cell-based; conditions: HEK293T, filed as activator
[16] = molecular target: Neuronal acetylcholine receptor; alpha4/beta2 (Rattus norvegicus) (UniProt P09483+P12390); test: Inhibition of rat alpha4beta2 nAChR expressed in Xenopus laevis oocytes assessed as inhibition of Ach-induced response at 10 uM at -80 mV holding potential preincubated for 5 mins followed by Ach stimulation by two electrode voltage-clamp assay relative to control; type: cell-based; conditions: Oocyte
[17] = molecular target: Neuronal acetylcholine receptor; alpha2/beta2 (Rattus norvegicus) (UniProt P12389+P12390); test: Inhibition of rat alpha2beta2 nAChR expressed in Xenopus laevis oocytes assessed as inhibition of Ach-induced response at 10 uM at -80 mV holding potential preincubated for 5 mins followed by Ach stimulation by two electrode voltage-clamp assay relative to control; type: cell-based; conditions: Oocyte
[18] = molecular target: Neuronal acetylcholine receptor; alpha3/beta2 (Rattus norvegicus) (UniProt P04757+P12390); test: Inhibition of rat alpha3beta2 nAChR expressed in Xenopus laevis oocytes assessed as inhibition of Ach-induced response at 10 uM at -80 mV holding potential preincubated for 5 mins followed by Ach stimulation by two electrode voltage-clamp assay relative to control; type: cell-based; conditions: Oocyte
[19] = molecular target: Neuronal acetylcholine receptor; alpha3/beta4 (Rattus norvegicus) (UniProt P04757+P12392); test: Inhibition of rat alpha3beta4 nAChR expressed in Xenopus laevis oocytes assessed as inhibition of Ach-induced response at 10 uM at -80 mV holding potential preincubated for 5 mins followed by Ach stimulation by two electrode voltage-clamp assay relative to control; type: cell-based; conditions: Oocyte

SMILES	Ratio IC50 [1]	Activity (Rattus norvegicus [2])	IC50 [3]	IC50 (GABA-B receptor)	Ratio IC50 [5]	IC50 [6]	inhibition (Neuron)	Activity [7]	inhibition (Rattus norvegicus [8])	inhibition [10]	other results
CC[C@H](C)[C@H](NC(=O)[C@H](CCC(=O)O)NC(=O)[C@@H]1CCCN1C(=O)[C@H](Cc1cnc[nH]1)NC(=O)[C@H](CC(=O)O)NC(=O)[C@H](Cc1ccc(O)cc1)NC(=O)[C@H](CC(N)=O)NC(=O)[C@H](CS)NC(=O)[C@H](CCCNC(=N)N)NC(=O)[C@@H]1CCCN1C(=O)[C@H](CC(=O)O)NC(=O)[C@H](CO)NC(=O)[C@H](CS)NC(=O)[C@H](CS)NC(=O)CN)C(=O)N[C@@H](CS)C(N)=O	417	51.1%	28.3 nM	2.4 nM	11.8	1000 nM	inactive	inactive	inactive	18.8%	Activity (Rattus norvegicus [4]): 12.2%; Activity (Rattus norvegicus [9]): 25.6%; Activity (Rattus norvegicus [11]): Active
CC[C@H](C)[C@H](NC(=O)[C@H](CCC(=O)O)NC(=O)[C@@H]1CCCN1C(=O)[C@H](Cc1cnc[nH]1)NC(=O)[C@H](CC(=O)O)NC(=O)[C@H](Cc1ccc(O)cc1)NC(=O)[C@H](CCCNC(=N)N)NC(=O)[C@H](CS)NC(=O)[C@H](CCCNC(=N)N)NC(=O)[C@@H]1CCCN1C(=O)[C@H](CC(=O)O)NC(=O)[C@H](CO)NC(=O)[C@H](CS)NC(=O)[C@H](CS)NC(=O)CNC(=O)c1ccccc1)C(=O)N[C@@H](CS)C(N)=O (Bz-GCCSDPRCRYDHPEIC-NH2)	> 25000	80%	875 nM	0.2 nM	4380	5930 nM	inactive	inactive	inactive	39.7%	inhibition [12]: 2.2%; inhibition [13]: > 50%; inhibition [14]: > 50%; inhibition [15]: 67.4%; inhibition [16]: > 50%; inhibition [17]: > 50%; inhibition [18]: > 50%; inhibition [19]: > 50%
CC[C@H](C)[C@H](NC(=O)[C@H](CCC(=O)O)NC(=O)[C@@H]1CCCN1C(=O)[C@H](Cc1cnc[nH]1)NC(=O)[C@H](CC(=O)O)NC(=O)[C@H](Cc1ccc(O)cc1)NC(=O)[C@H](CCCNC(=N)N)NC(=O)[C@H](CS)NC(=O)[C@H](CCCNC(=N)N)NC(=O)[C@@H]1CCCN1C(=O)[C@H](CC(=O)O)NC(=O)[C@H](CO)NC(=O)[C@H](CS)NC(=O)[C@@H](N)CS)C(=O)N[C@@H](CS)C(N)=O (H-CCSDPRCRYDHPEIC-NH2)	–	32.5%	–	23.2 nM	–	–	–	–	–	–	–
CC[C@H](C)[C@H](NC(=O)[C@H](CCC(=O)O)NC(=O)[C@@H]1CCCN1C(=O)[C@H](Cc1cnc[nH]1)NC(=O)[C@H](CC(N)=O)NC(=O)[C@H](Cc1ccc(O)cc1)NC(=O)[C@H](CCCNC(=N)N)NC(=O)[C@H](CS)NC(=O)[C@H](CCCNC(=N)N)NC(=O)[C@@H]1CCCN1C(=O)[C@H](CC(=O)O)NC(=O)[C@H](CO)NC(=O)[C@H](CS)NC(=O)[C@H](CS)NC(=O)CN)C(=O)N[C@@H](CS)C(N)=O (H-GCCSDPRCRYNHPEIC-NH2)	–	40.8%	13900 nM	> 1000 nM	< 13.9	–	–	–	–	–	–
